Measured values: patent US20120115852A1, “HETEROCYCLIC COMPOUNDS AS AUTOTAXIN INHIBITORS” (Merck Patent Gesellschaft Mit Beschrankter Haftung, priority 2009, published 2012)

Biological target: T1, recombinant autotaxin (Homo sapiens, UniProt Q13822)
T1 construct: made in house; host or cells: Hi5 insect cells (baculovirus)
Test: Autotaxin test (enzyme test), Amplex Red fluorescence with LPC substrate
Type: biochemical
Details: autotaxin inhibition (enzyme test); for remaining activity at 10 µM: 10 μM compound, read-out: % Control at 10 μM
Method: Autotaxin Inhibition (Enzyme Test)
Autotaxin Test (Enzyme Test)
The autotaxin activity is measured indirectly using Amplex Red reagent. Amplex Red is measured here as fluorogenic indicator for the H2O2 formed. In detail, autotaxin converts the substrate lysophosphatidylcholine (LPC) into phosphocholine and lysophosphatidylic acid (LPA). After this reaction, the phosphocholine is reacted with alkaline phosphatase to give inorganic phosphate and choline. In the next step, choline is oxidised by choline oxidase to give betaine, with formation of H2O2. H2O2 reacts with Amplex Red reagent in the presence of peroxidase (horseradish peroxidase) in a 1:1 stoichiometry and forms the highly fluorescent resorufin. The fluorescence is measured in a reaction-dependent kinetic mode in order that fluorescent signals from possible other fluorescent substances which are not involved in the reaction can be corrected out.
3 μl of a standard solution or of the test substances (substances with the name A(n)) in individual concentrations dissolved in 20 mM Hepes pH 7.2 with a maximum of 11% of DMSO are pre-incubated together with 20 μl (19 ng) of highly purified recombinant autotaxin in test buffer in a black microtitre plate provided with 384 wells at 22° C. for 30 min. The reaction is then initiated by addition of 10 μl of L-α-lysophosphatidylcholine (LPC), where the final concentration of LPC is 75 μM. The mixture is incubated at 37° C. for 90 min. After the incubation, Amplex Red reagent, peroxidase (horseradish peroxidase) and choline oxidase is added, and the fluorescence is immediately measured at 612 nm with excitation of 485 nm in a “Tecan Ultra multimode” reader. The activity of autotaxin is calculated indirectly via detection of the H2O2 formed.
• Microtitre plate: PS microplate, 384 wells, small volume, black Corning, Cat#3677 • Protein: recombinant autotaxin (Baculovirale Hi5 Expression) • Substrate: L-α-lysophosphatidylcholine (chicken egg)); Avanti Polar Lipids #830071 P • Standard: C14 LPA, Avanti Polar Lipids, Cat#857120P • Detection reagent: Amplex Red reagent; Invitrogen #A12222; 5 mg dissolved in 1.923 ml of DMSO peroxidase type VI-A (horseradish) from Sigma #P6782; 5 mg dissolved in 7.45 ml of test buffer, choline oxidase; Sigma # C5896; 50 U dissolved in 2.47 ml of test buffer • Detection reagent mix: 1:50 dilution of detection reagent in test buffer • Test buffer: 10 mM Tris HCl, Merck, Cat #1.08219, pH 8, 1 mM; CaCl2×2 H2O, Merck #1.02382

SMILES | remaining activity at 10 µM [%] | IC50 [µM]
Cc1cccc(C(O)C(=O)N2CCN3C(=O)c4cc(-c5ccc(Cl)cc5)ccc4NC(=O)C3C2)c1 (stereo not drawn) [Compound A44, 7-(4-Chlorophenyl)-2-(2-hydroxy-2-m-tolylacetyl)-1,3,4,11a-tetrahydro-2H,10H-2,4a,10-triaza-dibenzo[a,d]cycloheptene-5,11-dione] | 48 | > 1
O=C1Nc2ccc(-c3ccc(Cl)cc3)cc2C(=O)N2CCN(C(=O)C(O)c3cccc(C(F)(F)F)c3)CC12 (stereo not drawn) [Compound A45, 7-(4-Chlorophenyl)-2-[2-hydroxy-2-(3-trifluoro-methylphenyl)acetyl]-1,3,4,11a-tetrahydro-2H,10H-2,4a,10-triazadibenzo[a,d]cycloheptene-5,11-dione] | 61 | > 1
CC(C)(C(=O)N1CCN2C(=O)c3cc(-c4ccc(Cl)cc4)ccc3NC(=O)C2C1)c1ccccc1 (stereo not drawn) [Compound A46, 7-(4-Chlorophenyl)-2-(2-methyl-2-phenylpropionyl)-1,3,4,11a-tetrahydro-2H,10H-2,4a,10-triaza-dibenzo[a,d]cycloheptene-5,11-dione] | – | > 1
O=C1Nc2ccc(-c3ccc(Cl)cc3)cc2C(=O)N2CCN(C(=O)C3(c4ccc(Cl)cc4)CC3)CC12 (stereo not drawn) [Compound A47, 7-(4-Chlorophenyl)-2-[1-(4-chlorophenyl)-cyclopropanecarbonyl]-1,3,4,11a-tetrahydro-2H,10H-2,4a,10-triazadibenzo[a,d]cycloheptene-5,11-dione] | – | > 1
O=C1Nc2ccc(-c3ccc(Cl)cc3)cc2C(=O)N2CCN(C(=O)Nc3ccccc3)CC12 (stereo not drawn) [Compound A48, N-Phenyl-7-(4-chlorophenyl)-5,11-dioxo-3,4,5,10,11,11a-hexahydro-1H-2,4a,10-triaza-dibenzo[a,d]cycloheptene-2-carboxamide] | 20 | > 1
O=C1Nc2ccc(-c3ccc(Cl)cc3)cc2C(=O)N2CCN(C(=O)C3(c4ccccc4)CC3)CC12 (stereo not drawn) [Compound A49, 7-(4-Chlorophenyl)-2-(1-phenylcyclopropane-carbonyl)-1,3,4,11a-tetrahydro-2H,10H-2,4a,10-triazadibenzo[a,d]cycloheptene-5,11-dione] | – | > 1
Nc1nc(C(=O)N2CCN3C(=O)c4cc(-c5ccc(Cl)cc5)ccc4NC(=O)C3C2)cs1 (stereo not drawn) [Compound A50, 2-(2-Aminothiazole-4-carbonyl)-7-(4-chlorophenyl)-1,3,4,11a-tetrahydro-2H,10H-2,4a,10-triaza-dibenzo[a,d]cycloheptene-5,11-dione] | 80 | –

Now from value to compound:

remaining activity at 10 µM [%] | IC50 [µM] | SMILES
48 | > 1 | O=C1Nc2ccc(-c3ccc(Cl)cc3)cc2C(=O)N2CCN(C(=O)C(O)c3ccccc3Cl)CC12 (stereo not drawn) [Compound A40, 7-(4-Chlorophenyl)-2-[2-(2-chlorophenyl)-2-hydroxyacetyl]-1,3,4,11a-tetrahydro-2H,10H-2,4a,10-triazadibenzo[a,d]cycloheptene-5,11-dione]
68 | > 1 | O=C1Nc2ccc(-c3ccc(Cl)cc3)cc2C(=O)N2CCN(C(=O)C(O)c3cccc(Cl)c3)CC12 (stereo not drawn) [Compound A41, 7-(4-Chlorophenyl)-2-[2-(3-chlorophenyl)-2-hydroxyacetyl]-1,3,4,11a-tetrahydro-2H,10H-2,4a,10-triazadibenzo[a,d]cycloheptene-5,11-dione]
12 | > 1 | COC(C(=O)N1CCN2C(=O)c3cc(-c4ccc(Cl)cc4)ccc3NC(=O)C2C1)c1ccccc1 (stereo not drawn) [Compound A42, 7-(4-Chlorophenyl)-2-(2-methoxy-2-phenylacetyl)-1,3,4,11a-tetrahydro-2H,10H-2,4a,10-triaza-dibenzo[a,d]cycloheptene-5,11-dione]
31 | > 1 | O=C1Nc2ccc(-c3ccc(Cl)cc3)cc2C(=O)N2CCN(C(=O)[C@H](O)c3ccccc3)CC12 (stereo partly drawn) [Compound A43, 7-(4-Chlorophenyl)-2-((R)-2-hydroxy-2-phenylacetyl)-1,3,4,11a-tetrahydro-2H,10H-2,4a,10-triazadibenzo[a,d]cycloheptene-5,11-dione]
